# From patent US6673555B1, “Methods of using SCAP antagonists” (SmithKline Beecham Corporation, priority 1999, dated 2004)
# What was measured:
# [1] = target: T1, truncated form of SCAP corresponding to amino acid 2 to 473 (Cricetulus griseus, UniProt P97260); assay: Photo-affinity labelling / competition binding on truncated SCAP (amino acid 2 to 473) in Sf-9 cell membranes; design: species or system hamster
# T1 construct: a truncated form of SCAP corresponding to amino acid 2 to 473; expressed in transfected cells; host or cells: Sf-9 insect cells infected with recombinant baculovirus (Gateway pDest10 bacmid); membranes analysed
# T1 sequence (P97260 2-473): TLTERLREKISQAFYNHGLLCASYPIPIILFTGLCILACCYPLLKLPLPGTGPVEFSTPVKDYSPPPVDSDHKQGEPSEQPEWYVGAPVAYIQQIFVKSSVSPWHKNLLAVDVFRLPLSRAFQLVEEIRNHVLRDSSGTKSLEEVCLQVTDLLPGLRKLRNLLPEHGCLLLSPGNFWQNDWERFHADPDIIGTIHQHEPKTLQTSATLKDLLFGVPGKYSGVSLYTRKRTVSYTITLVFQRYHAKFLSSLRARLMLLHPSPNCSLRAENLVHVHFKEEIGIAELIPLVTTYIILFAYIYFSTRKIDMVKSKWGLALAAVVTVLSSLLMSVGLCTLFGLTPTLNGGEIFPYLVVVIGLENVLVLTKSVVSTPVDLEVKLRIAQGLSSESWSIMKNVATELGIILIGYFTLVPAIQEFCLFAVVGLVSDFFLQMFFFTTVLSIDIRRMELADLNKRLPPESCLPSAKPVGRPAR
# Experimental: Hamster SCAP cDNA was cut from pTK-HSV-SCAP-T7 using BgIII and Xbal and re-cloned in pTen 12 transfer vector. Recombinant baculovirus clones were produced by Quantum Biotechnologies Inc. and screened by western blots using T7-tag antibodies on Sf-9 infected cells. Sf-9 cells were grown in CCM-3 medium at 28° C. and seeded at 8×10^6 cells per 75 cm^2 flask. Four hours later they were infected with 200×10^6 pfu of baculovirus and incubated 3 days before harvest. Truncated SCAP corresponding to amino acid 2 to 473 was produced by PCR amplification with Platinium Pfx polymerase using pTK-HSV-SCAP-T7 as template and primers containing attB1 sequence followed by SEQ ID NO: 1 […] and the complement strand of attB2 sequence followed by SEQ ID NO: 2 […]. After recombination into pDonR201 vector using the Gateway cloning system, the inserts were recloned into pDest10 vector using LR recombinase. The corresponding bacmids and recombinant baculovirus were produced according the manufacturer instructions.
# A competition binding assay using recombinant SCAP protein was developed in Sf-9 insect cells. […]
# Infected Sf-9 cells were harvested, washed in Dulbecco phosphate buffered saline and 2×10^5 cells were incubated with test compounds and the control (^14C radio-labeled Example 2 ) for 30 min at 28° C. in 24 well plates. […] The radioactivity was detected using a Phosporlmager screen (Molecular Dynamics). […]
# [2] = target: T2, full length hamster SCAP (Cricetulus griseus, UniProt P97260); assay: Photo-affinity labelling / competition binding on full length SCAP in infected Sf-9 cells
# T2 construct: recombinant baculovirus encoding for full length hamster SCAP containing a T7 tag; expressed in transfected cells; host or cells: Sf-9 insect cells infected with recombinant baculovirus (pTen12 transfer vector)
# T2 sequence (P97260 1-1276): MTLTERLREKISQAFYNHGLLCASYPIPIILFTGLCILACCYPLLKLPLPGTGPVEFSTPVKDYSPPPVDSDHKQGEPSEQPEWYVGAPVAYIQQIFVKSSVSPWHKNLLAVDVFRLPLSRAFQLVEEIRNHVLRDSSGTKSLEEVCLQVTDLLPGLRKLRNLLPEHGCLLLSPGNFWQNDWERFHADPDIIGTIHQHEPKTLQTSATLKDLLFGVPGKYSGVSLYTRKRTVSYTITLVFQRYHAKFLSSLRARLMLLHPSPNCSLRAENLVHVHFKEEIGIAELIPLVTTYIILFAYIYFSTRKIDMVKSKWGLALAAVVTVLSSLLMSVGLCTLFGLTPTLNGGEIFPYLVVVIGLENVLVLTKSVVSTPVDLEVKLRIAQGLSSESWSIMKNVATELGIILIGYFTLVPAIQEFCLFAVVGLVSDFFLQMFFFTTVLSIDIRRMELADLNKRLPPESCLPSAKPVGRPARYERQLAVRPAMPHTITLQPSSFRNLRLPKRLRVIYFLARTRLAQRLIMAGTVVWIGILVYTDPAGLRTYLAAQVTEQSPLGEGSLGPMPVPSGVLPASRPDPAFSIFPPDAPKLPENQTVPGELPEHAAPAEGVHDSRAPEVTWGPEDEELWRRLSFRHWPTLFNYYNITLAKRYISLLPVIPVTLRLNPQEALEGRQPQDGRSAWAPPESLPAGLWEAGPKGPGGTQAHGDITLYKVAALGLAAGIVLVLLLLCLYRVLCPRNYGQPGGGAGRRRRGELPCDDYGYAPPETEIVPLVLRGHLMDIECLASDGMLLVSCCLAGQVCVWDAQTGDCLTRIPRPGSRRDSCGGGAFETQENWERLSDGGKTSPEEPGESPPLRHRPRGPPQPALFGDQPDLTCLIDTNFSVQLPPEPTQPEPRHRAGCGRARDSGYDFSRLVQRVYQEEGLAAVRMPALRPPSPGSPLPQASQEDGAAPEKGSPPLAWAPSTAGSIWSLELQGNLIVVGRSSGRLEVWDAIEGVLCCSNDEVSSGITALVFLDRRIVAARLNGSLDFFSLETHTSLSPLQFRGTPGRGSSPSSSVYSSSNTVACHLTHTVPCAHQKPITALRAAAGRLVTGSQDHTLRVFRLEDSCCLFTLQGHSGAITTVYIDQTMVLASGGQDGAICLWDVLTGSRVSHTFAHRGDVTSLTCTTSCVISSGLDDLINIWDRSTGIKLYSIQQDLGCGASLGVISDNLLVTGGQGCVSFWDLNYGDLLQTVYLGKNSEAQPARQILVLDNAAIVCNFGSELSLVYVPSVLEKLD
# Experimental: Hamster SCAP cDNA was cut from pTK-HSV-SCAP-T7 using BgIII and Xbal and re-cloned in pTen 12 transfer vector. Recombinant baculovirus clones were produced by Quantum Biotechnologies Inc. and screened by western blots using T7-tag antibodies on Sf-9 infected cells. Sf-9 cells were grown in CCM-3 medium at 28° C. and seeded at 8×10^6 cells per 75 cm^2 flask. Four hours later they were infected with 200×10^6 pfu of baculovirus and incubated 3 days before harvest. […]
# Infected Sf-9 cells were harvested, washed in Dulbecco phosphate buffered saline and 2×10^5 cells were incubated with test compounds and the control (^14C radio-labeled Example 2 ) for 30 min at 28° C. in 24 well plates. […] The radioactivity was detected using a Phosporlmager screen (Molecular Dynamics).
# Sf-9 insect cells were infected with recombinant baculovirus encoding for full length hamster SCAP containing a T7 tag (FIG. 1A). Total protein (10 μg) from control cells (lanes b, d) or infected cells (lanes a, c) were analyzed by SDS-PAGE and either stained using Coomassie blue (lanes a, b) or blotted on nitrocellulose membrane following immuno-detection with T7 tag monoclonal antibody (lanes c, d). […] The gel was dried and radioactivity detected using Phosphor Imager Screen.
# [3] = system: HepG2 cells; assay: Uptake of Dil-LDL by HepG2 cells; format: cell-based; settings: 10 μM, 24 hours, Dil-LDL 6 μg/ml for last 4 hours, FIG. 5
# Experimental: To determine if activation of LDL-receptor promoter also translated into an increase in functional LDL receptors, an LDL uptake assay was set up. HepG2 cells seeded at 8 10^4 cells per 8 well Biocoat slides (Beckton Dickinson) were treated with SCAP antagonist or 25OH-cholesterol for 20h and then incubated with 6 μg/ml of fluorescent Dil-LDL for 4 hours. The amount of fluorescent dye that accumulated in the lysosomes was quantified by fluorescence microscopy using Axioplan-2 Zeiss microscope equipped with DXC950P video camera (Sony) and red fluorescence filters.
# HepG2 cells were treated for 24 hours in the presence of 0.5 μM Example 1 or 10 μM 25OH-cholesterol. Dil-LDL (6 μg/ml) were added 4 hours before the end of the incubation. Cells were washed and observed by fluorescence microscopy using rhodamine filters and video camera with fixed settings.
# [4] = system: human LDL-receptor promoter; assay: LDL-receptor promoter luciferase reporter assay in transfected HepG2 cells; format: cell-based
# Excerpt: The human LDL-receptor promoter named p-588 corresponding to nucleotide −588 to +91 relative to the major transcription site was cloned by PCR from human genomic DNA (Clonetech) using SEQ ID NO: 3 […] and SEQ ID NO: 4 […] primers. and inserted into pGL3-basic vector (Promega) at Hind-III and Nco-I sites. The sequencing was identical to published promoter (Genbank L29401). Shorter promoters were obtained by PCR sub-cloning using Kpn-I and Nar-I sites. The primer SEQ ID NO: 5 […] corresponding to luciferase coding sequence was used as reverse primer for all constructs. The following primers were used to produce respectively p-149, p-118, p-70, p-53 and p-31 promoters: SEQ ID NO: 6 […], SEQ ID NO: 7 […], SEQ ID NO: 8 […], SEQ ID NO: 9 […] and SEQ ID NO: 10 […]. A vector containing the 38 bp of the minimal promoter of adenovirus Major Late Promoter (Ham. J. et al., EMBO, 10: 2931-2940 (1991)) was produced using Bgl-II and Hind-III site in pGL3-basic. Four repeats of the SRE sequence present on the human LDL-receptor promoter were introduced in p-MLP vector using Bgl-II site, SEQ ID NO: 11 […] and complementary oligo. HepG2 cells seeded the previous day at 3 10^5 cells per well of 24 well plate were transfected with 1 μg of LDL-promoter containing vector together with p-RL-TK control vector (Promega) using Fugene 6 (Boehringer). HepG2 cells were incubated for 28 hours in the presence of SCAP antagonist and/or 25OH-cholesterol. Firefly luciferase and Renila activity were measured using Dual Luciferase Assay Kit (Promega) and Lumistar (BMG). The ratio of Firefly luciferase to Renila were used to calculate mean and S.D. of tetraplicates.
# A vector containing the human LDL-receptor promoter coupled to Firefly luciferase reporter was made. A mixture of the LDL-receptor vector and control pRL-TK vector was used to transfect HepG2 cells. Cells were incubated with 25OH-cholesterol (0.2 or 1 μM) alone or in the presence (black bars) or absence (gray bars) of Example 1 (1 μM) for 28 hours before measurement of luciferase and renila activity. The ratio of luciferase activity versus renila activity was calculated and the mean and SD of triplicates were expressed as percent of control.
# Shortening the LDL-receptor promoter in the same reporter vector modifies the relative luciferase activity (FIG. 3A).
structure (smiles),measurement,setting,value
"CCOC1=CC2=C(CN(C)C)C[C@@H]3[C@H](C(O)C[C@@]4(C)[C@H]3CC[C@@]43OCOC34COCO4)[C@@]2(C)CC1 (stereo partly drawn) [Example 3, 3-Ethoxy-11-hydroxy-androst-3,5-diene-17α,17β-(1,3,6,8-tetraoxaspiro[4.4]nonan-4-yl)-6-methyldimethylamine]",competition with 14C-Example 2 labelling of truncated SCAP,"[1]; 200 μM or 100 μM test compound versus 5 μM 14C-Example 2, FIG. 1B",competitive
same,displacement of the 14C-Example 2 labelling of SCAP,"[2]; 100, 50, 20 μM test compound versus 5 μM 14C-Example 2, FIG. 1A",displaced in a dose dependant manner
"COc1cc(C(C)C)ccc1C1CCN(CCCCNC(=O)c2ccc(C(=O)c3ccccc3)cc2)CC1.Cl [Example 2, 4-(4-Benzoyl)-N-{4-[4-(4-isopropyl-2-methoxy-phenyl)-piperidin-1-yl]-butyl}-benzamide Hydrochloride]",photo-affinity labelling of truncated SCAP by the radio-labelled compound,"[1]; 5 μM 14C-Example 2, membranes, FIG. 1B",can be labelled
same,photo-affinity labelling of SCAP by the radio-labelled compound,"[2]; 5 μM 14C-Example 2, 30 min at 28° C., 365 nm UV 10 min, FIG. 1A",specifically labeled SCAP
"C[C@H](CCCC(C)(C)O)[C@H]1CC[C@H]2[C@@H]3CC=C4C[C@@H](O)CC[C@]4(C)[C@H]3CC[C@]12C [25OH-cholesterol, reference compound]",LDL uptake (Dil-LDL fluorescence),[3],reduced it
same,LDL-receptor promoter activity (luciferase/renila ratio),"[4]; 0.2 or 1 μM, 28 hours, HepG2, FIG. 2",represses LDL-receptor promoter activity
same,repression of shortened LDL-receptor promoter constructs,"[4]; HepG2, FIG. 3B right",two sequences are involved: SRE and FP-1
